Measurements from PubChem BioAssay AID1845200 (Molecular Pharmacology Branch, DTP, NCI, 2023).

Test system: ASPS-1 complex tumor spheroids, viability
Test: Anticancer human tumor ASPS-1 cell line growth inhibition;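 further: spheroids exposed to agents for 7 days after 3 days of growth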;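 on viability, T/C: 100% = DMSO vehicle treated spheroids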
Details: for IC50: curve of first compound; for viability, T/C: stronger effect = lower value
Summary of the method: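 Complex spheroids of malignant cells with endothelial cells and mesenchymal stem cells; agents alone or combined, from near clinical Cmax (or 10 microM if unknown) down in half-log steps, 0.25% DMSO final.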

[1] = second compound 30 pM, first compound 0.0316 µM
[2] = second compound 30 pM, first compound 0.1 µM
[3] = second compound 30 pM, first compound 0.316 µM
[4] = second compound 30 pM, first compound 1 µM
[5] = second compound 30 pM, first compound 3.16 µM
[6] = second compound 30 pM, first compound 10 µM
[7] = second compound 94.9 pM, first compound 0.0316 µM
[8] = second compound 94.9 pM, first compound 0.1 µM
[9] = second compound 94.9 pM, first compound 0.316 µM
[10] = second compound 94.9 pM, first compound 1 µM
[11] = second compound 94.9 pM, first compound 3.16 µM
[12] = second compound 94.9 pM, first compound 10 µM
[13] = second compound 0.0003 µM, first compound 0.0316 µM
[14] = second compound 0.0003 µM, first compound 0.1 µM
[15] = second compound 0.0003 µM, first compound 0.316 µM
[16] = second compound 0.0003 µM, first compound 1 µM
[17] = second compound 0.0003 µM, first compound 3.16 µM
[18] = second compound 0.0003 µM, first compound 10 µM
[19] = second compound 0.000949 µM, first compound 0.0316 µM
[20] = second compound 0.000949 µM, first compound 0.1 µM
[21] = second compound 0.000949 µM, first compound 0.316 µM
[22] = second compound 0.000949 µM, first compound 1 µM
[23] = second compound 0.000949 µM, first compound 3.16 µM
[24] = second compound 0.000949 µM, first compound 10 µM
[25] = second compound 0.003 µM, first compound 0.0316 µM
[26] = second compound 0.003 µM, first compound 0.1 µM
[27] = second compound 0.003 µM, first compound 0.316 µM
[28] = second compound 0.003 µM, first compound 1 µM
[29] = second compound 0.003 µM, first compound 3.16 µM
[30] = second compound 0.003 µM, first compound 10 µM

## Cc1cc(C)c(CNC(=O)c2cc(-c3ccc(CN4CCOCC4)cc3)cc3c2cnn3C2CCCC2)c(=O)[nH]1 + COc1cc2c(cc1O)CCNC21CSC2c3c(OC(C)=O)c(C)c4c(c3C(COC1=O)N1C(O)C3Cc5cc(C)c(OC)c(O)c5C(C21)N3C)OCO4
Second compound 30 pM
  IC50: > 10 µM
Second compound 94.9 pM
  IC50: > 10 µM
Second compound 0.0003 µM
  IC50: > 10 µM
Second compound 0.000949 µM
  IC50: 0.273 µM
Second compound 0.003 µM
  IC50: < 0.0316 µM
[1]
  viability, T/C: 103%
[2]
  viability, T/C: 97.4%
[3]
  viability, T/C: 102%
[4]
  viability, T/C: 104%
[5]
  viability, T/C: 96.9%
[6]
  viability, T/C: 84.4%
[7]
  viability, T/C: 105%
[8]
  viability, T/C: 97.8%
[9]
  viability, T/C: 98.7%
[10]
  viability, T/C: 99.5%
[11]
  viability, T/C: 93.5%
[12]
  viability, T/C: 76.8%
[13]
  viability, T/C: 92%
[14]
  viability, T/C: 96.2%
[15]
  viability, T/C: 92.8%
[16]
  viability, T/C: 86.2%
[17]
  viability, T/C: 80.1%
[18]
  viability, T/C: 63.1%
[19]
  viability, T/C: 56.8%
[20]
  viability, T/C: 75.2%
[21]
  viability, T/C: 39.9%
[22]
  viability, T/C: 31.6%
[23]
  viability, T/C: 24.5%
[24]
  viability, T/C: 9.44%
[25]
  viability, T/C: 13.7%
[26]
  viability, T/C: 5.99%
[27]
  viability, T/C: 2.02%
[28]
  viability, T/C: 0.27%
[29]
  viability, T/C: 0.25%
[30]
  viability, T/C: 0.32%

## [2H]c1nc(C)nc([2H])c1-c1cc(NC[C@@H](C)c2cccc3c(C(=O)NC)ccnc23)ncn1 + COc1cc2c(cc1O)CCNC21CSC2c3c(OC(C)=O)c(C)c4c(c3C(COC1=O)N1C(O)C3Cc5cc(C)c(OC)c(O)c5C(C21)N3C)OCO4
Second compound 30 pM
  IC50: > 10 µM
Second compound 94.9 pM
  IC50: > 10 µM
Second compound 0.0003 µM
  IC50: > 10 µM
Second compound 0.000949 µM
  IC50: 6.59 µM
Second compound 0.003 µM
  IC50: < 0.0316 µM
[1]
  viability, T/C: 106%
[2]
  viability, T/C: 105%
[3]
  viability, T/C: 102%
[4]
  viability, T/C: 107%
[5]
  viability, T/C: 102%
[6]
  viability, T/C: 98.7%
[7]
  viability, T/C: 106%
[8]
  viability, T/C: 102%
[9]
  viability, T/C: 99%
[10]
  viability, T/C: 98.2%
[11]
  viability, T/C: 97.6%
[12]
  viability, T/C: 99.5%
[13]
  viability, T/C: 97.6%
[14]
  viability, T/C: 94.8%
[15]
  viability, T/C: 93%
[16]
  viability, T/C: 88.5%
[17]
  viability, T/C: 98%
[18]
  viability, T/C: 91.3%
[19]
  viability, T/C: 78.6%
[20]
  viability, T/C: 76.5%
[21]
  viability, T/C: 71.1%
[22]
  viability, T/C: 66.2%
[23]
  viability, T/C: 56.2%
[24]
  viability, T/C: 46.2%
[25]
  viability, T/C: 18.6%
[26]
  viability, T/C: 22.6%
[27]
  viability, T/C: 18%
[28]
  viability, T/C: 18.1%
[29]
  viability, T/C: 11%
[30]
  viability, T/C: 3.59%
